Assay results published in article PMC11157767 (Molecular Cancer, 2024).

System: TFG-MET allograft tumors
Assay: RNA-sequencing, differential expression and GSEA of TFG-MET allograft tumors
Format: in vivo, mouse
Details: GSEA CAP vs Veh, C5 GO CC
Experimental: Error bars display standard error of mean, statistical significance was determined using t-test analysis. (****;p<0.0001, ***;p<0.001, **;p<0.01, *;p<0.05). […] Each dot represents an individual replicate. Error bars display standard error of the mean.
Each dot represents one gene.

With CNC(=O)c1ccc(-c2cnc3ncc(Cc4ccc5ncccc5c4)n3n2)cc1F [Capmatinib] the “NES GOCC_U12_TYPE_SPLICEOSOMAL_COMPLEX” value (padj 0.00985351) was -1.841, the “NES GOCC_ENDOCYTIC_VESICLE_MEMBRANE” value (padj 0.00993117) was 1.48 and the “NES GOCC_MAIN_AXON” value (padj 0.0105942) was 1.71. For the same compound, the “NES GOCC_CILIARY_TIP” value (padj 0.0106966) was 1.78, the “NES GOCC_CILIARY_BASAL_BODY” value (padj 0.0123456) was 1.449 and the “NES GOCC_RNA_POLYMERASE_III_COMPLEX” value (padj 0.0128749) was -1.798. For the same compound, the “NES GOCC_CATION_CHANNEL_COMPLEX” value (padj 0.0130428) was 1.45, the “NES GOCC_PROTON_TRANSPORTING_TWO_SECTOR_ATPASE_COMPLEX_CATALYTIC_DOMAIN” value (padj 0.0138609) was 1.892 and the “NES GOCC_SPECIFIC_GRANULE_MEMBRANE” value (padj 0.0141171) was 1.543. The “NES GOCC_SWI_SNF_SUPERFAMILY_TYPE_COMPLEX” value (padj 0.0141171) was -1.631, the “NES GOCC_U1_SNRNP” value (padj 0.015809) was -1.765 and the “NES GOCC_MICROBODY” value (padj 0.0162979) was 1.4892. For the same compound, the “NES GOCC_CHAPERONE_COMPLEX” value (padj 0.0163882) was -1.777, the “NES GOCC_SPINDLE” value (padj 0.0181265) was -1.395 and the “NES GOCC_AUTOPHAGOSOME_MEMBRANE” value (padj 0.0181579) was 1.734. The “NES GOCC_DNA_POLYMERASE_COMPLEX” value (padj 0.0181579) was -1.786, the “NES GOCC_P_BODY” value (padj 0.0181579) was -1.619 and the “NES GOCC_MHC_CLASS_I_PROTEIN_COMPLEX” value (padj 0.0188701) was 1.849. The “NES GOCC_AZUROPHIL_GRANULE_MEMBRANE” value (padj 0.0193916) was 1.659, the “NES GOCC_EXOCYTIC_VESICLE” value (padj 0.0193916) was 1.3878 and the “NES GOCC_EXON_EXON_JUNCTION_COMPLEX” value (padj 0.0194501) was -1.776. The “NES GOCC_SPLICEOSOMAL_TRI_SNRNP_COMPLEX” value (padj 0.0201459) was -1.73, the “NES GOCC_PLASMA_MEMBRANE_PROTEIN_COMPLEX” value (padj 0.0211865) was 1.208 and the “NES GOCC_SPINDLE_POLE” value (padj 0.0236958) was -1.485. For the same compound, the “NES GOCC_CYTOPLASMIC_REGION” value (padj 0.0239917) was 1.358, the “NES GOCC_RIBOSOME” value (padj 0.0240328) was -1.42 and the “NES GOCC_RNA_POLYMERASE_II_HOLOENZYME” value (padj 0.0260741) was -1.585. For the same compound, the “NES GOCC_PROTEIN_LIPID_COMPLEX” value (padj 0.030494) was 1.7122, the “NES GOCC_CENTROSOME” value (padj 0.0306446) was -1.299 and the “NES GOCC_PROTEASOME_CORE_COMPLEX” value (padj 0.0307775) was 1.722. The “NES GOCC_PROTON_TRANSPORTING_V_TYPE_ATPASE_COMPLEX” value (padj 0.0307775) was 1.755, the “NES GOCC_SNARE_COMPLEX” value (padj 0.0312218) was 1.596 and the “NES GOCC_BLOC_COMPLEX” value (padj 0.0315137) was 1.832. For the same compound, the “NES GOCC_INTRACILIARY_TRANSPORT_PARTICLE_B” value (padj 0.0329395) was 1.825, the “NES GOCC_POLYSOMAL_RIBOSOME” value (padj 0.0334435) was -1.667 and the “NES GOCC_AP_TYPE_MEMBRANE_COAT_ADAPTOR_COMPLEX” value (padj 0.0422332) was 1.673. The “NES GOCC_9PLUS0_NON_MOTILE_CILIUM” value (padj 0.0467153) was 1.3799, the “NES GOCC_PROTON_TRANSPORTING_ATP_SYNTHASE_COMPLEX” value (padj 0.0488031) was 1.779 and the “NES GOCC_SEX_CHROMOSOME” value (padj 0.0490653) was -1.646. The “NES GOCC_U2_SNRNP” value (padj 0.0543003) was -1.648, the “NES GOCC_ENDOCYTIC_VESICLE” value (padj 0.0582082) was 1.305 and the “NES GOCC_HIGH_DENSITY_LIPOPROTEIN_PARTICLE” value (padj 0.0591592) was 1.639. For the same compound, the “NES GOCC_REPLISOME” value (padj 0.0619841) was -1.586, the “NES GOCC_ANCHORED_COMPONENT_OF_MEMBRANE” value (padj 0.0629656) was 1.328 and the “NES GOCC_INTRINSIC_COMPONENT_OF_SYNAPTIC_VESICLE_MEMBRANE” value (padj 0.0629656) was 1.526. For the same compound, the “NES GOCC_MULTIVESICULAR_BODY” value (padj 0.063611) was 1.4828, the “NES GOCC_NURD_COMPLEX” value (padj 0.0667331) was -1.604 and the “NES GOCC_CYTOPLASMIC_MICROTUBULE” value (padj 0.0742121) was 1.415. For the same compound, the “NES GOCC_PHOTORECEPTOR_CONNECTING_CILIUM” value (padj 0.0825356) was 1.523, the “NES GOCC_REGION_OF_CYTOSOL” value (padj 0.0834337) was -1.574 and the “NES GOCC_FILOPODIUM_MEMBRANE” value (padj 0.0837675) was -1.564.
